# Where two headings read alike, the source gives them in different places.
# How the values were obtained:
# [1] = tested on: HIV-1 NL4-3 ΔV370 variant (NLRepRlucP373S/Δ370); assay type: cell-based
# HIV-1 RF = assay: Multiple-cycle assay, laboratory strains; assay type: cell-based; settings: Human immunodeficiency virus 1
# HIV-1 IIIB = assay: Multiple-cycle assay, laboratory strains; assay type: cell-based; settings: Human immunodeficiency virus 1, CXCR4, MT-2
# HIV-1 LAI = assay: Multiple-cycle assay, laboratory strains; assay type: cell-based; settings: Human immunodeficiency virus 1
# HIV-1 JRFL = assay: Multiple-cycle assay, laboratory strains; assay type: cell-based; settings: Human immunodeficiency virus 1, CCR5, PM1
# HIV-2 ROD = assay: Multiple-cycle assay, laboratory strains; assay type: cell-based; settings: Human immunodeficiency virus 2, MT-2
# [2] = tested on: subtype B gag/pr recombinant viruses; assay: Multiple-cycle Gag/Pr phenotyping assay; assay type: cell-based, HIV-1
# [3] = tested on: subtype C gag/pr recombinant viruses; assay: Multiple-cycle Gag/Pr phenotyping assay; assay type: cell-based, HIV-1
# [4] = tested on: V370M virus (recombinant virus with gag/pr genes from a clinical isolate); assay: microbe, parasite or virus in culture; assay type: cell-based, HIV-1; settings: Human immunodeficiency virus 1, MT2, read-out: EC50 (SD)
# HIV-1 gp160 = target: T1, HIV-1 gp160 (Human immunodeficiency virus type 1 group M subtype B, UniProt P04578); assay: HIV-1 cell fusion assay; assay type: cell-based
# T1 construct: expressed in transfected cells; host or cells: NL-TOE donor cells (target cells: HeLa C14)
# [5] = target: HIV-1 reverse transcriptase (Human immunodeficiency virus type 1 group M subtype B, UniProt P03366); assay: In vitro HIV-1 reverse transcriptase assay; assay type: biochemical
# [6] = target: WT HIV-1 VLPs, p25 to p24 (CA/SP1) cleavage (Human immunodeficiency virus type 1 group M subtype B, UniProt P03348); assay: HIV-1 VLP protease cleavage assay; assay type: biochemical; settings: Western blot
# HIV-1 NL4-3 = assay: Time-of-addition study, NL4-3-infected B6 cells; assay type: cell-based; settings: single cycle, 24 h postinfection
# [7] = initial / phase 2a clinical studies; cited from earlier work
# in vitro = settings: dog
# [8] = tested on: MJ4, a subtype C molecular clone; assay: RT activity in PBMCs; settings: Human immunodeficiency virus 1, PBMC
# HIV-1 Gag (WT LAI VLPs) = HIV-1 Gag (WT LAI VLPs) (Human immunodeficiency virus type 1 group M subtype B, UniProt P03348); assay: [3H]BMS-955176-Gag binding (SPA)
# [9] = Serum binding assay (ultracentrifugation)
# [10] = tested on: HIV-1 subtype B clinical isolates; assay: Drug susceptibility assay using clinical isolates in PBMCs
# [11] = tested on: HIV-1 subtype A clinical isolates; assay: as above; settings: Human immunodeficiency virus 1, PBMC
# [12] = tested on: HIV-1 subtype CRF01_AE clinical isolates; assay: as above; settings: Human immunodeficiency virus 1, PBMC
# [13] = tested on: HIV-1 subtype C clinical isolates; assay: as above
# [14] = tested on: HIV-1 subtype F clinical isolate; assay: as above; settings: Human immunodeficiency virus 1, PBMC
# [15] = tested on: HIV-1 group N clinical isolate; assay: as above; settings: Human immunodeficiency virus 1, PBMC
# [16] = tested on: viruses from subtypes A, C, D, F, and G; assay: as above; settings: Human immunodeficiency virus 1, PBMC, read-out: EC50s (range)
smiles,measurement,setting,value
C=C(C)[C@@H]1CC[C@]2(NCCN3CCS(=O)(=O)CC3)CC[C@]3(C)[C@H](CC[C@@H]4[C@@]5(C)CC=C(c6ccc(C(=O)O)cc6)C(C)(C)[C@@H]5CC[C@]43C)[C@@H]12 [BMS-955176],EC50,"[1]; Human immunodeficiency virus 1, NL43, MT2",13 nM
same,EC50,"[1]; Human immunodeficiency virus 1, NL43, MT2, read-out: EC50 (SD)",13 nM
same,EC50,HIV-1 RF,7.7 ± 1.4 nM
same,EC50,HIV-1 IIIB,2.8 ± 0.3 nM
same,EC50,HIV-1 LAI,2.6 ± 0.3 nM
same,EC50,HIV-1 JRFL,2.5 ± 0.8 nM
same,EC50,HIV-2 ROD,15 ± 1.2 nM
same,EC50,"[2]; Human immunodeficiency virus 1, read-out: EC50 (mean), full library, None (WT), n=51",3 nM
same,EC50,"[2]; Human immunodeficiency virus 1, read-out: EC50 (mean), full library, T371A/Q/N/S/TT, n=6",4 nM
same,EC50,"[2]; Human immunodeficiency virus 1, read-out: EC50 (mean), full library, V362I, n=5",5.3 nM
same,EC50,"[2]; Human immunodeficiency virus 1, read-out: EC50 (mean), full library, V370A + ΔT371, n=4",12 nM
same,EC50,"[2]; Human immunodeficiency virus 1, read-out: EC50 (mean), full library, V370A, n=7",2 nM
same,EC50,"[2]; Human immunodeficiency virus 1, read-out: EC50 (mean), full library, V370I/L/T, n=4",3 nM
same,EC50,"[2]; Human immunodeficiency virus 1, read-out: EC50 (mean), full library, V370 M, n=9",7 nM
same,EC50,"[2]; Human immunodeficiency virus 1, read-out: EC50 range, V362I-containing viruses, n=5",2 to 9.4 nM
same,EC50,"[2]; Human immunodeficiency virus 1, read-out: EC50 range, all subtype B, n=87",0.7 to 22 nM
same,EC50,"[2]; Human immunodeficiency virus 1, read-out: mean EC50, all subtype B, n=87",3.9 ± 3.4 nM
same,EC50,"[2]; Human immunodeficiency virus 1, read-out: median EC50, V362I-containing viruses, n=5",5.7 nM
same,EC50,"[2]; Human immunodeficiency virus 1, read-out: median EC50, WT subtype B (n=51)",2.5 nM
same,EC50,"[2]; Human immunodeficiency virus 1, read-out: median EC50, all subtype B, n=87",2.8 nM
same,EC50,"[2]; read-out: EC50 (mean), full library, V362I, n=5",5 nM
same,EC50,"[3]; Human immunodeficiency virus 1, read-out: EC50 range",2.1 to 45 nM
same,EC50,"[3]; Human immunodeficiency virus 1, read-out: mean EC50",10.9 ± 9.1 nM
same,EC50,"[3]; Human immunodeficiency virus 1, read-out: median EC50",8.8 nM
same,EC50,[4],10 nM
same,EC50,HIV-1 gp160,> 2000 nM
same,IC50,[5],> 50 µM
same,inhibition of conversion of VLP p25 to p24,[6],inhibited the conversion of HIV-1 WT VLP p25 to p24 in a dose-dependent manner
same,effect on luciferase signal by time of addition,HIV-1 NL4-3,did not inhibit luciferase expression when added any time during infection
same,clinical safety and tolerability,[7],safe and well tolerated
same,CC50,in vitro,3.9 µM
same,EC50,[8],3 nM
same,Ki,HIV-1 Gag (WT LAI VLPs),5.6 nM
same,Kd,"HIV-1 Gag (WT LAI VLPs); Kd values, range of 5 experiments",2.3 to 6 nM
same,Kd,"HIV-1 Gag (WT LAI VLPs); Kd, saturation binding of [3H]BMS-955176 to LAI VLPs",5.5 nM
same,human serum binding,"[9]; 100% human serum, ultracentrifugation method",86%
same,"fraction unbound at 1 h, 0.052 µM","[9]; human, serum",0.14
same,EC50,"[10]; Human immunodeficiency virus 1, PBMC, read-out: Mean EC50 ± SD, PBMCs, B (96% of Gag diversity), 22 isolates",24 ± 24 nM
same,EC50,"[10]; Human immunodeficiency virus 1, PBMC, read-out: Mean EC50 ± SD, PBMCs, B (all), 26 isolates",67 ± 172 nM
same,EC50,"[10]; Human immunodeficiency virus 1, PBMC, read-out: Median EC50, PBMCs, B (96% of Gag diversity), 22 isolates",17 nM
same,EC50,"[10]; Human immunodeficiency virus 1, PBMC, read-out: Median EC50, PBMCs, B (all), 26 isolates",21 nM
same,EC50,"[10]; Human immunodeficiency virus 1, PBMC, read-out: Range EC50, PBMCs, B (96% of Gag diversity), 22 isolates",1 to 110 nM
same,EC50,"[10]; Human immunodeficiency virus 1, PBMC, read-out: Range EC50, PBMCs, B (all), 26 isolates",1 to 858 nM
same,EC50,"[10]; Human immunodeficiency virus 1, PBMC, read-out: mean EC50, PBMCs, three less susceptible subtype B variants with Gag V370A/ΔT371",123 ± 162 nM
same,EC50,[10]; PBMC,860 nM
same,EC50,"[11]; PBMCs, one less sensitive subtype A isolate",280 nM
same,EC50,"[11]; read-out: Mean EC50 ± SD, PBMCs, A, 13 of 14 isolates",26 ± 25 nM
same,EC50,"[11]; read-out: Mean EC50 ± SD, PBMCs, A, 14 isolates",44 ± 72 nM
same,EC50,"[11]; read-out: Median EC50, PBMCs, A, 13 of 14 isolates",20 nM
same,EC50,"[11]; read-out: Median EC50, PBMCs, A, 14 isolates",21 nM
same,EC50,"[11]; read-out: Range EC50, PBMCs, A, 13 of 14 isolates",5 to 87 nM
same,EC50,"[11]; read-out: Range EC50, PBMCs, A, 14 isolates",5 to 280 nM
same,EC50,"[11]; read-out: median EC50 values, Fig 7, PBMCs, A (Group M)",20000 nM
same,EC50,"[12]; read-out: Mean EC50 ± SD, PBMCs, AE, 7 isolates",77 ± 46 nM
same,EC50,"[12]; read-out: Range EC50, PBMCs, AE, 7 isolates",10 to 139 nM
same,EC50,"[13]; Human immunodeficiency virus 1, PBMC, PBMCs, one insensitive subtype C isolate",1400 nM
same,EC50,"[13]; Human immunodeficiency virus 1, PBMC, read-out: Mean EC50 ± SD, PBMCs, C, 13 of 14 isolates",17 ± 11 nM
same,EC50,"[13]; Human immunodeficiency virus 1, PBMC, read-out: Mean EC50 ± SD, PBMCs, C, 14 isolates",116 nM
same,EC50,"[13]; Human immunodeficiency virus 1, PBMC, read-out: Median EC50, PBMCs, C, 13 of 14 isolates",14 nM
same,EC50,"[13]; Human immunodeficiency virus 1, PBMC, read-out: Median EC50, PBMCs, C, 14 isolates",14 nM
same,EC50,"[13]; Human immunodeficiency virus 1, PBMC, read-out: Range EC50, PBMCs, C, 13 of 14 isolates",1 to 45 nM
same,EC50,"[13]; Human immunodeficiency virus 1, PBMC, read-out: median EC50 values, Fig 7, PBMCs, C (Group M)",15000 nM
same,EC50,"[13]; read-out: Range EC50, PBMCs, C, 14 isolates",1 to 1400 nM
same,EC50,[14]; read-out: Mean EC50,5.9 nM
same,EC50,[14]; read-out: Median EC50,6 nM
same,EC50,[14]; read-out: Range EC50,6 nM
same,EC50,[15]; read-out: Mean EC50,7.2 nM
same,EC50,[15]; read-out: Median EC50,7 nM
same,EC50,[15]; read-out: Range EC50,7 nM
same,EC50,[16],5.9 to 87 nM
